According to patent US11076598B2, “Peroxide-based disinfecting solutions containing inorganic salts” (Diversey, Inc., priority 2017, dated 2021):

Assay: Antimicrobial efficacy of the inorganic salt on its own
Settings: salt alone at the concentration employed in the solutions

N.N.O=S(=O)(O)O [ammonium sulphate]
antimicrobial efficacy of the salt on its own: no antimicrobial efficacy on its own

[Cl-].[Na+] [sodium chloride]
antimicrobial efficacy of the salt on its own: no antimicrobial efficacy on its own
